Laboratory results from patent publication US10570080B2, “Perfume ketones” (Givaudan, S.A., priority 2015, dated 2020).
Like-named read-outs stand apart in the source and are kept apart here.

Legend:
[1] = tested on: Luciferase gene under the control of the ARE-element of the gene AKR1C2 (KeratinoSens cell line); experiment: KeratinoSens assay for skin sensitization: luciferase gene induction; conditions: for Concentration for 1.5-fold gene induction (EC 1.5 in μM): 48 h, n.i. = no induction above threshold of 1.5; for Imax (fold maximal gene induction): 48 h incubation, 0.98 to 2000 μM, vs DMSO controls
Experimental: (§1) Sensitization is measured by the commercially-available and universally-accepted KeratinoSens™ test, which compares the potential skin sensitization risk of chemicals.
(§2) KeratinoSens cells were grown for 24 h in 96-well plates. The medium was then replaced with medium containing the test chemical and the solvent dimethylsulfoxide (DMSO) at a final level of 1%. Each compound was tested at 12 binary dilutions in the range from 0.98 to 2000 μM. Cells were incubated for 48 h with the test agents, and then luciferase activity and cytotoxicity were determined. This full procedure was repeated three times for each chemical. For each chemical in each repetition and at each concentration, the gene induction compared to DMSO controls and the wells with statistically significant induction over the threshold of 1.5 (i.e. 50% enhanced gene activity) were determined. Furthermore, the maximal fold-induction (Imax) and the EC1.5 value (concentration in μM for induction above the threshold) were calculated.
(§3) Compounds were tested using the commercial KeratinoSens™ assay for skin sensitization.

[2] = target: T1, test peptide Cor1C-420 (Ac-NKKCDLF) (Homo sapiens, UniProt Q9ULV4, I423F); experiment: Peptide reactivity assay for skin sensitization (similar to DPRA), LC-MS; assay type: biochemical; conditions: 37° C., 1 mM test chemical, 0.1 mM peptide
T1 construct: purchased Genscript Inc., Piscataway, N.J., USA
Experimental: A second method to determine allergenic potential of chemicals is the DPRA direct peptide assay (OECD TG 442c). It is based on the fact that allergenic chemicals must react with a peptide/protein in order to be immunogenic.
A peptide reactivity assay (A. Natsch, H. Gfeller, Toxicol. Sci 2008, 106, 464-478) was conducted similarly to the DPRA assay: The test chemicals were dissolved to a final concentration of 4 mM in acetonitrile and 250 μl of this solution were added to 2 ml HPLC vials. The test peptide Cor1C-420 with the sequence Ac-NKKCDLF (Genscript Inc., Piscataway, N.J., USA), was dissolved at 0.133 mM in 20 mM phosphate buffer at pH 7.5, and 750 μl of this solution were added to each test vial (final concentrations: 1 mM of test chemical and 0.1 mM of peptide in 25% acetonitrile; ratio 1:10 as in the DPRA assay). The samples were incubated for 1-24 h at 37° C. and at regular intervals they were analysed by LC-MS analysis on a VELOS PRO Mass spectrometer (Thermo […], San Jose, Calif., U.S.A.) operated in the ESl(+) mode. The temperature of the capillary was kept at 275° C. Mass spectra were recorded from 200-2000 amu. […]
Two endpoints are measured with this assay: • a) Depletion of the parent peptide. The mass of the protonated parent peptide is measured and the corresponding peak integrated (% depletion; FIG. 2). […]

KeratinoSens cells = experiment: KeratinoSens assay: cytotoxicity / cellular viability; conditions: 48 h
Experimental: KeratinoSens cells were grown for 24 h in 96-well plates. The medium was then replaced with medium containing the test chemical and the solvent dimethylsulfoxide (DMSO) at a final level of 1%. Each compound was tested at 12 binary dilutions in the range from 0.98 to 2000 μM. Cells were incubated for 48 h with the test agents, and then luciferase activity and cytotoxicity were determined. This full procedure was repeated three times for each chemical.
as §3

[3] = tested on: Luciferase gene under the control of the ARE-element of the gene AKR1C2 (KeratinoSens cell line)
Experimental: as §1, §2, §3

Compound | sensitization rating by the KeratinoSens assay [1] | induction of luciferase activity above the 1.5-fold threshold ([1]; KeratinoSens) | Concentration for 1.5-fold gene induction (EC 1.5 in μM) ([1]; KeratinoSens) | Imax (fold maximal gene induction) ([1]; KeratinoSens) [fold] | levels of peptide adducts, fold lower as compared to Damascone delta ([2]; after 1 h) [fold] | peptide depletion ([2]; over the 24 h experiment) | Concentration for 50% Cytotoxicity (KeratinoSens cells) [µM] | concentration at which the luciferase gene is clearly induced [3] [µM] | maximal gene induction over control [3] [fold] | sensitization rating by the KeratinoSens assay [3]
C/C=C(\C)C(=O)[C@@H]1[C@@H](C)C=CCC1(C)C (relative stereo) [Example 1, (2E,1′R*,2′S*)-2-Methyl-(2′,6′,6′-trimethylcyclohex-3′-en-1′-yl)but-2-en-1-one] | non-sensitizing | did not induce luciferase activity above the 1.5-fold threshold | n.i. | 1.09 | 3200 | no significant peptide depletion | 90.3 |  |  | 
C/C=C/C(=O)C1C(C)C=CCC1(C)C (stereo not shown) [Damascone delta™, (2E)-1-(2′,6′,6′-trimethylcyclohex-3′-en-1′-yl)but-2-en-1-one] |  |  |  |  |  |  |  | 4 | 8.7 | significantly sensitizing compound
CC=C(C)C(=O)C1CCC=CC1C (stereo not drawn) [Example 8, (2E,1′R*,2′R*)-2-Methyl-1-(2′-methylcyclohex-3′-en-1′-yl)but-2-en-1-one] |  |  | n.i. | 1.35 |  |  | 316.4 |  |  | 
